One data set in a line: in vivo. The following applies: mouse, po. How it is done:
The toxicities were determined according to Lichtfield and Wilcoxon, Journ. Pharm.

The subject of data set [1] is carrageenin-induced edema in the rat paw. The experiment in a line: Carrageenin-induced edema of the rat paw (Winter et al.). The data set is classed as in vivo. The following applies: po, read-out: Percent inhibition of the carrageenin-induced edema; for inhibition in vivo at 20 mg/kg: 20 mg/kg os; for inhibition in vivo at 50 mg/kg: 50 mg/kg os; for inhibition in vivo at 100 mg/kg: 100 mg/kg os; for inhibition in vivo at 200 mg/kg: 200 mg/kg os. Background: Carrageenan injected into the paw causes an acute inflammation.

The test system of data set [2] is granuloma formed on a cotton pellet implanted subcutaneously in rats. Nature of the data set: Cotton pellet granuloma test in rats (Meier et al.). The following applies: Rattus norvegicus, po, read-out: Percent inhibition of the granuloma pellet.
In data set [3] the test system is adjuvant induced arthritis in rats. The experiment in a line: Adjuvant induced arthritis test in rats (Newbold). In kind it is in vivo, rat. The settings on record: rats p.o. How it is done: In still another some of the compounds were tested in the adjuvant induced arthritis test in rats.
This test which was performed as described by B. B. Newbold in Bri. Journ. Pharmacol., 21, 127, (1963), is absolutely meaningful, because adjuvant arthritis is one of the best pharmacological tool with which a pharmacologist can investigate compounds as to their possible antiinflammatory activity, owing to the fact that this experimental model of chronic inflammation looks closer like to the conditions of rheumatoid arthritis of the human pathology (see Pearson, C. M., Arthritis and allied conditions, page 119, Lea and Febiger Publ. 1967 and Pearson C. M., J. Chronic Diseases, 16, 863 (1963).
. The measure of effectiveness of the compounds in this test is given by their ability in reducing the volume of the hind paws of the rats.

Where only a bound is given, the exact number is not on record here.

As usually defined, the LD50 is the dose expected to kill half of the subjects tested. Lower therefore signals greater toxicity. `Cc1cc(-c2nc3c4ccccc4ccc3n2C)ccc1N(C)C` [Example 5, 4-(3-methyl-3H-naphtho[1,2-d]imidazol-2-yl)-2,N,N-trimethylbenzenamine]: the LD50 in the data set “in vivo” was found to be 500 mg/kg. Besides, in data set [1], the inhibition in vivo at 20 mg/kg worked out at 35%, the inhibition in vivo at 50 mg/kg came out at 50% and the inhibition in vivo at 100 mg/kg was found to be 64%. In addition, the inhibition in vivo at 100 mg/kg in data set [2] came to 38%. The “% Reduction of the volume of the hind paws over the control” value (“% Reduction” below) in data set [3] (100 mg/kg) was determined as 42%.
The compound `CNc1ccc(-c2nc3c4ccccc4ccc3n2C)cc1` [Example 7, N-methyl-4-(3-methyl-3H-naphtho[1,2-d]imidazol-2-yl)benzenamine] came in with an LD50 in the data set “in vivo” of 500 mg/kg. In addition, in data set [1], the inhibition in vivo at 20 mg/kg was determined as 29%, the inhibition in vivo at 50 mg/kg turned out to be 37% and the inhibition in vivo at 100 mg/kg was 47%. Besides, the inhibition in vivo at 100 mg/kg in data set [2] was determined as 33%.
For the compound `Cn1c(-c2ccccc2)nc2c3ccccc3ccc21` [Example 1, 3-methyl-2-phenyl-3H-naphtho[1,2-d]imidazole], the LD50 in the data set “in vivo” was found to be 1000 mg/kg. In data set [1], the inhibition in vivo at 50 mg/kg was 24%, the inhibition in vivo at 100 mg/kg was determined as 37% and the inhibition in vivo at 200 mg/kg amounted to 42%. The inhibition in vivo at 200 mg/kg in data set [2] came to 24%.
In the data set “in vivo”, `COc1ccc(-c2nc3c4ccccc4ccc3n2C)cc1` [Example 3, 2-(4-methoxyphenyl)-3-methyl-3H-naphtho[1,2-d]imidazole] came in with an LD50 of approximately 1000 mg/kg. In data set [1], the inhibition in vivo at 50 mg/kg was 34% and the inhibition in vivo at 100 mg/kg was 41%. Also, the inhibition in vivo at 100 mg/kg in data set [2] was 40%. Besides, the “% Reduction” value in data set [3] (200 mg/kg) is on record as 33%.
In the data set “in vivo”, `CCOc1ccc(-c2nc3c4ccccc4ccc3n2C)cc1` [Example 2, 3-methyl-2-(4-ethoxyphenyl)-3H-naphtho[1,2-d]imidazole] registered an LD50 of more than 1000 mg/kg. In data set [1], the inhibition in vivo at 50 mg/kg came to 21%, the inhibition in vivo at 100 mg/kg worked out at 37% and the inhibition in vivo at 200 mg/kg amounted to 45%. Also, the inhibition in vivo at 200 mg/kg in data set [2] worked out at 40%.
With `COc1ccc(-c2nc3c4ccccc4ccc3n2C(C)C)cc1` [Example 9, 3-(1-methylethyl)-2-(4-methoxyphenyl)-3H-naphth[1,2-d]imidazole], in data set [1], the inhibition in vivo at 50 mg/kg turned out to be 32%, the inhibition in vivo at 100 mg/kg stood at 45% and the inhibition in vivo at 200 mg/kg was determined as 48%. In addition, the inhibition in vivo at 200 mg/kg in data set [2] is 45%. The “% Reduction” value in data set [3] (200 mg/kg) is 53%.
In turn, `CN(C)c1ccc(-c2nc3c4ccccc4ccc3n2C)cc1` [Example 4, N,N-dimethyl-4-(3-methyl-3H-naphtho[1,2-d]imidazol-2-yl) benzenamine] returned a median lethal dose (LD50) in “in vivo” of 500 mg/kg. In data set [1], the inhibition in vivo at 20 mg/kg stood at 32%, the inhibition in vivo at 50 mg/kg was 46% and the inhibition in vivo at 100 mg/kg came to 54%. The inhibition in vivo at 100 mg/kg in data set [2] amounted to 24%.
Turning to `CCn1c(-c2ccc(OC)cc2)nc2c3ccccc3ccc21` [Example 15, 3-ethyl-2-(4-methoxyphenyl)-3H-naphtho[1,2-d]imidazole], the LD50 in the data set “in vivo” was more than 1000 mg/kg. In data set [1], the inhibition in vivo at 20 mg/kg was found to be 31%, the inhibition in vivo at 50 mg/kg worked out at 45%, the inhibition in vivo at 100 mg/kg is 49% and the inhibition in vivo at 200 mg/kg worked out at 52%. The inhibition in vivo at 200 mg/kg in data set [2] worked out at 31%.
